Assay [1] deals with T1, human PTEFb (CDK9/Cyclin T1) (Homo sapiens, UniProt P50750).
T1 construct: purchased ProQinase, Freiburg, Germany
The assay is described as follows: Surface Plasmon Resonance PTEFb. In kind it is binding. The settings on record: SPR, 37° C.; for Kd: * = arithmetic means of more than one value, read-out: Equilibrium dissociation constant KD; for residence time / Target residence time: 1/koff; for residence time / koff / Target residence time / Dissociation rate constant koff: * = arithmetic means; for residence time: read-out: Target residence time; for koff / Dissociation rate constant koff: < = below what is resolvable; for koff: read-out: Dissociation rate constant koff. The text has this:
8. Surface Plasmon Resonance PTEFb
The term “surface plasmon resonance”, as used herein, refers to an optical phenomenon that allows for the analysis of the reversible associations of biological molecules in real time within a biosensor matrix, for example using the Biacore® system (GE Healthcare Biosciences, Uppsala, Sweden). Biacore® uses the optical properties of surface plasmon resonance (SPR) to detect alterations in the refractive index of a buffer, which changes as molecules in solution interact with the target immobilized on the surface. In brief, proteins are covalently bound to the dextran matrix at a known concentration and a ligand for the protein is injected through the dextran matrix. Near infrared light, directed onto the opposite side of the sensor chip surface is reflected and also induces an evanescent wave in the gold film, which in turn, causes an intensity dip in the reflected light at a particular angle known as the resonance angle. If the refractive index of the sensor chip surface is altered (e.g. by compound binding to the bound protein) a shift occurs in the resonance angle. This angle shift can be measured.
The term “KD”, as used herein, is intended to refer to the equilibrium dissociation constant of a particular compound/target protein complex.
The term “koff”, as used herein, is intended to refer to the off-rate, i.e. the dissociation rate constant of a particular compound/target protein complex.
The term “target residence time”, as used herein, is intended to refer to the inverse of the rate of dissociation rate constant (1/koff) of a particular compound/target protein complex.
The ability of the compounds according to the invention to bind human PTEFb may be determined using surface plasmon resonance (SPR). KD values and koff values may be measured using a Biacore® T200 instrument (GE Healthcare, Uppsala, Sweden).
For SPR measurements, recombinant human PTEFb (CDK9/Cyclin T1 recombinant human active protein kinase purchased from ProQinase, Freiburg, Germany) is immobilized using standard amine coupling (Johnsson B et al, Anal Biochem. 1991 Nov. 1; 198(2):268-77). Briefly, carboxymethylated dextran biosensor chips (CM7, GE Healthcare) are activated with N-ethyl-N′-(3-dimethylaminopropyl)-carbodiimide hydrochloride (EDC) and N-hydroxysuccinimide (NHS) according to the supplier's instructions. Human PTEFb is diluted in 1×HBS-EP+ (GE Healthcare) and injected on the activated chip surface. Subsequently, a 1:1 solution of 1 M ethanolamine-HCl (GE Healthcare) and 1×HBS-EP is injected to block unreacted groups, resulting in approximately 4000 response units (RU) of immobilized protein. A reference surface is generated by treatment with NHS-EDC and ethanolamine-HCl. Compounds are dissolved in 100% dimethylsulfoxide (DMSO, Sigma-Aldrich, Germany) to a concentration of 10 mM and subsequently diluted in running buffer (1×HBS-EP+pH 7.4 [generated from HBS-EP+ Buffer 10× (GE Healthcare): 0.1 M HEPES, 1.5 M NaCl, 30 mM EDTA and 0.5% v/v Surfactant P20], 1% v/v DMSO). For kinetic measurements, serial dilutions of compound (0.78 nM up to 25 nM) are injected over immobilized protein. Binding kinetics is measured at 37° C. with a flow rate of 100 μl/min in running buffer. Compound concentrations are injected for 70 s followed by a dissociation time of 1100 s. The resulting sensorgrams are double-referenced against the reference surface as well as against blank injections.
The double-referenced sensorgrams are fit to a simple reversible Langmuir 1:1 reaction mechanism as implemented in the Biacore® T200 evaluation software 2.0 (GE Healthcare). In cases were full compound dissociation has not occurred at the end of the dissociation phase, the Rmax parameter (response at saturation) is fit as local variable. In all other cases, Rmax is fit as global variable.

Another assay relates to NCI-H460 cells. The assay is described as follows: Proliferation assay, NCI-H460. The class given is cell-based. As to conditions: Homo sapiens, NCI-H460, 96 h; 4 days, crystal violet; read-out: Inhibition of NCI-H460 cell proliferation IC50. How it is done: Cultivated tumour cells (HeLa, human cervical tumour cells, ATCC CCL-2; NCI-H460, human non-small cell lung carcinoma cells, ATCC HTB-177; DU 145, hormone-independent human prostate carcinoma cells, ATCC HTB-81; HeLa-MaTu-ADR, multidrug-resistant human cervical carcinoma cells, EPO-GmbH Berlin; Caco-2, human colorectal carcinoma cells, ATCC HTB-37; B16F10, mouse melanoma cells, ATCC CRL-6475) were plated at a density of 5,000 cells/well (DU145, HeLa-MaTu-ADR), 3,000 cells/well (NCI-H460, HeLa), 1,500 cells/well (Caco-2), or 1,000 cells/well (B16F10) in a 96-well multititer plate in 200 μL of their respective growth medium supplemented 10% fetal calf serum. After 24 hours, the cells of one plate (zero-point plate) were stained with crystal violet (see below), while the medium of the other plates was supplemented with the test substances in various concentrations (0 μM, as well as in the range of 0.0001-10 μM; the final concentration of the solvent dimethyl sulfoxide was adjusted to 0.1%) using a Hewlett-Packard HP D300 Digital Dispenser. The cells were incubated for 4 days in the presence of test substances. Cell proliferation was determined by staining the cells with crystal violet: the cells were fixed by adding 20 μl/measuring point of an 11% glutaric aldehyde solution for 15 minutes at room temperature. After three washing cycles of the fixed cells with water, the plates were dried at room temperature. The cells were stained by adding 100 μl/measuring point of a 0.1% crystal violet solution (pH 3.0). After three washing cycles of the stained cells with water, the plates were dried at room temperature. The dye was dissolved by adding 100 μl/measuring point of a 10% acetic acid solution. The extinction was determined by photometry at a wavelength of 595 nm. The change of cell number, in percent, was calculated by normalization of the measured values to the extinction values of the zero-point plate (=0%) and the extinction of the untreated ([…]) cells (=100%). The IC50 values (inhibitory concentration at 50% of maximal effect) were determined by means of a 4 parameter fit. A2780 human ovarian carcinoma cells (ECACC #93112519) and non-adherent MOLM-13 human acute myeloid leukemia cells (DSMZ ACC 554) were seeded at a density of 3,000 cell/well (A2780) or 5,000 cells/well (MOLM-13) in a 96-well multititer plate in 150 μL of growth medium supplemented 10% fetal calf serum. After 24 hours, cell viability of one plate (zero-point plate) was determined with the Cell Titre-Glo Luminescent Cell Viability Assay (Promega), while the medium of the other plates was supplemented with the test substances in various concentrations (0 μM, as well as in the range of 0.0001-10 μM; the final concentration of the solvent dimethyl sulfoxide was adjusted to 0.1%) using a Hewlett-Packard HP D300 Digital Dispenser. Cell viability was assessed after 72-hour exposure with the Cell Titre-Glo Luminescent Cell Viability Assay (Promega). IC50 values (inhibitory concentration at 50% of maximal effect) were determined by means of a 4 parameter fit on measurement data which were normalized to vehicle (DMSO) treated cells (=100%) and measurement readings taken immediately before compound exposure (=0%).

Where “and” joins values, the source holds several entries; their conditions need not be identical. Equal entries are not always repeated. Bounds are passed on as bounds.

The record followed here is patent US11254690B2, “PTEFb inhibiting macrocyclic compounds” (BAYER AKTIENGESELLSCHAFT, priority 2017, dated 2022).

T1 sequence (P50750 whole entry): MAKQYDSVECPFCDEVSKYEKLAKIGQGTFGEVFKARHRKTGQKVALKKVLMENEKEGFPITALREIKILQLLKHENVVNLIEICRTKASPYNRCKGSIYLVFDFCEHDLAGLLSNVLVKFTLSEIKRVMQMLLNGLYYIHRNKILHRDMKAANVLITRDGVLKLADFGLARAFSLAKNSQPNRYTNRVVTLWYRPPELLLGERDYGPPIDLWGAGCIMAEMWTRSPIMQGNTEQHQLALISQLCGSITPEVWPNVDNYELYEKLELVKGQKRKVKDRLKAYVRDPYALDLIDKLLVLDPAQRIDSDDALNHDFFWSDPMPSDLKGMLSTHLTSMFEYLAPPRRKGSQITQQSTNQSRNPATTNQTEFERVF
T1 sequence (O60563 whole entry partner): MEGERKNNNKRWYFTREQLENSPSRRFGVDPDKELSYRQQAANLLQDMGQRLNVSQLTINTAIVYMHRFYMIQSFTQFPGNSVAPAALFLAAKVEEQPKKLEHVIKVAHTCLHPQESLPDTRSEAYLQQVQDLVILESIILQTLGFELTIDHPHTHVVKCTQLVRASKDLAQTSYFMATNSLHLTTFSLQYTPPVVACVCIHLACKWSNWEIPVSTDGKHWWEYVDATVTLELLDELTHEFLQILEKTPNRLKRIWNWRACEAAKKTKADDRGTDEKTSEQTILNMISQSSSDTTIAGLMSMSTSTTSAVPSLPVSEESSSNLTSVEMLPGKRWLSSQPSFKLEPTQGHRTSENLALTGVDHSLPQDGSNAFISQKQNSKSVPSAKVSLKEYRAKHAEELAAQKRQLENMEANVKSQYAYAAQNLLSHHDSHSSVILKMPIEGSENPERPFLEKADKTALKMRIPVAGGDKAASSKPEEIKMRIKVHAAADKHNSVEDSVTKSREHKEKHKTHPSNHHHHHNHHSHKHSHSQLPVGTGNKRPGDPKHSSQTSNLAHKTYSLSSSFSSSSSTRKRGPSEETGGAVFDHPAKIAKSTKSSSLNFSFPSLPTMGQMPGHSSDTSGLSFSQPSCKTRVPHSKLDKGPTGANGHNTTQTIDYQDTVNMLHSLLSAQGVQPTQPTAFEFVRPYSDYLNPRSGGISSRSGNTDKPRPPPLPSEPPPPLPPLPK

For `CC1CCCOc2cc(ccc2F)-c2cc(ncc2F)Nc2cc(CS(C)(=O)=O)cc(n2)O1` (racemic) [Example 28, 3,20-difluoro-14-methyl-10-[(methylsulfonyl)methyl]-13,18-dioxa-5,7,24-triazatetracyclo[17.3.1.1^2,6.1^8,12]pentacosa-1(23),2(25),3,5,8(24),9,11,19,21-nonaene], the Kd in assay [1] is 0.092 nM and 0.091 nM and 0.12 nM. Turning to `CS(=N)(=O)Cc1cc2cc(c1)OCCCCOc1cc(ccc1F)-c1nc(ncc1F)N2` (racemic) [Example 4, (rac)-3,20-difluoro-10-[(S-methylsulfonimidoyl)methyl]-13,18-dioxa-5,7,25-triazatetracyclo[17.3.1.1^2,6.1^8,12]pentacosa-1(23),2(25),3,5,8(24),9,11,19,21-nonaene], the IC50 with NCI-H460 cells turned out to be 331 nM. Further, in assay [1], the residence time was 25 min, the Kd amounted to 1.2 nM and the koff stood at 0.00067 s⁻¹.

On to `CS(=N)(=O)Cc1cc2cc(c1)OCCCCOc1c(F)ccc(c1F)-c1nc(ncc1F)N2` (racemic) [Example 8, (rac)-3,20,23-trifluoro-10-[(S-methylsulfonimidoyl)methyl]-13,18-dioxa-5,7,25-triazatetracyclo[17.3.1.1^2,6.1^8,12]pentacosa-1(23),2(25),3,5,8(24),9,11,19,21-nonaene], for which the IC50 with NCI-H460 cells worked out at 217 nM. With `CC1CCCOc2cc(ccc2F)-c2cc(ncc2F)Nc2cc(CS(C)(=N)=O)cc(n2)O1` (single isomer, unassigned) [Example 17, 3,20-difluoro-14-methyl-10-[(S-methylsulfonimidoyl)methyl]-13,18-dioxa-5,7,24-triazatetracyclo[17.3.1.1^2,6.1^8,12]pentacosa-1(23),2(25),3,5,8(24),9,11,19,21-nonaene], in assay [1], the residence time is more than 208 min, the Kd came out at 0.077 nM and the koff is less than 8e-05 s⁻¹.

For the compound `CC(C)(C)OC(=O)N=S(C)(=O)Cc1cc2cc(c1)OCCCCOc1cc(ccc1F)-c1nc(ncc1F)N2` (racemic) [Example 3, (rac)-tert-butyl [{[3,20-difluoro-13,18-dioxa-5,7,25-triazatetracyclo[17.3.1.1^2,6.1^8,12]pentacosa-1(23),2(25),3,5,8(24),9,11,19,21-nonaen-10-yl]methyl}(methyl)oxido-λ^6-sulfanylidene]carbamate], in the assay on NCI-H460 cells, the IC50 is 267 nM.

Consider `CC(C)(C)OC(=O)N=S(C)(=O)Cc1cc2cc(c1)OCCCCCOc1cc(ccc1F)-c1nc(ncc1F)N2` (racemic) [Example 5, (rac)-tert-butyl [{[3,21-difluoro-13,19-dioxa-5,7,26-triazatetracyclo[18.3.1.1^2,6.1^8,12]hexacosa-1(24),2(26),3,5,8(25),9,11,20,22-nonaen-10-yl]methyl}(methyl)oxido-λ^6-sulfanylidene]carbamate], for which the IC50 with NCI-H460 cells is 479 nM. As for `CC1CCCCOc2cc(ccc2F)-c2cc(ncc2F)Nc2cc(CS(C)(=N)=O)cc(n2)O1` (single isomer, unassigned) [Example 21, 3,21-difluoro-14-methyl-10-[(S-methylsulfonimidoyl)methyl]-13,19-dioxa-5,7,25-triazatetracyclo[18.3.1.1^2,6.1^8,12]hexacosa-1(24),2(26),3,5,8(25),9,11,20,22-nonaene], in assay [1], the Target residence time is on record as 10* min, the Kd amounted to 1 nM and the “Dissociation rate constant koff” value is on record as 1.6E−3* 1/s. With `CS(=N)(=O)Cc1cc2cc(c1)OCCCCCOc1cc(ccc1F)-c1nc(ncc1F)N2` (racemic) [Example 6, (rac)-3,21-difluoro-10-[(S-methylsulfonimidoyl)methyl]-13,19-dioxa-5,7,26-triazatetracyclo[18.3.1.1^2,6.1^8,12]hexacosa-1(24),2(26),3,5,8(25),9,11,20,22-nonaene], in the assay with NCI-H460 cells, the IC50 came out at 277 nM. Take `CC1CCCOc2cc(ccc2F)-c2cc(ncc2F)Nc2cc(CS(C)(=N)=O)cc(n2)O1` (single isomer, unassigned) [Example 16, 3,20-difluoro-14-methyl-10-[(S-methylsulfonimidoyl)methyl]-13,18-dioxa-5,7,24-triazatetracyclo[17.3.1.1^2,6.1^8,12]pentacosa-1(23),2(25),3,5,8(24),9,11,19,21-nonaene]: in assay [1], the Target residence time was > 208 min and 131 min; the “Dissociation rate constant koff” value is < 8e-05 s⁻¹ and 0.00013 s⁻¹. As for `CS(=N)(=O)Cc1cc2cc(c1)OCCCOc1cc(ccc1F)-c1nc(ncc1F)N2` (racemic) [Example 10, (rac)-3,19-difluoro-10-[(S-methylsulfonimidoyl)methyl]-13,17-dioxa-5,7,24-triazatetracyclo[16.3.1.1^2,6.1^8,12]tetracosa-1(22),2(24),3,5,8(23),9,11,18,20-nonaene], in the assay with NCI-H460 cells, the IC50 was found to be 238 nM. Turning to `CC1CCCCOc2cc(ccc2F)-c2cc(ncc2F)Nc2cc(CS(C)(=N)=O)cc(n2)O1` (single isomer, unassigned) [Example 22, 3,21-difluoro-14-methyl-10-[(S-methylsulfonimidoyl)methyl]-13,19-dioxa-5,7,25-triazatetracyclo[18.3.1.1^2,6.1^8,12]hexacosa-1(24),2(26),3,5,8(25),9,11,20,22-nonaene], in assay [1], the Target residence time was 43* min, the Kd came out at 0.19 nM and the “Dissociation rate constant koff” value is 3.9E−4* 1/s.
